# Read-outs that look alike come from different tables or passages of the source.
# How the values were obtained:
# [1] = test system: purified collagenase from P. gingivalis; assay: anti-collagenase activity, 3H-collagen hydrolysis; type: biochemical; details: for % Inhibition of collagenase: 24 h at 25° C.
# Protocol: Collagenase activity in the presence of the preferred compound 2-aminophenazine-5,10-dioxide and in the presence of Tetracycline were measured by incubating ^3 H-collagen with purified collagenase from P. gingivalis using increasing drag concentrations. After 24 h at 25° C., unhydrolyzed collagen fibers were removed from the mixture by centrifugation, and the specific activity of ^3 H in the supernatant quantified as a measure of hydrolyzed collagen. Percent inhibition was determined by subtracting the value in the presence of test compound from the control value, then dividing this quantity by the control value [(control-compound)/control×100].
# [2] = type: in vivo; details: for Other Signs of Toxicity: in vivo
# Protocol: Toxicity was also evaluated in rodents via intravenous (IV) and oral (PO) routes of administration across a range of dose levels.
# P. gingivalis = assay: bone loss after oral colonization with P. gingivalis in mice, systemic administration; type: in vivo, BALB/c mice; details: infected mice, IP daily; 25 d (2-methylphenazine-5,10-dioxide) or 40 d (Tetracycline)
# Protocol: An animal model for testing the antimicrobial activity of the invention against P. gingivalis was conducted by inducing oral colonization of the microbe in BALB/c mice. Drug (2-methylphenazine-5,10-dioxide or Tetracycline) or control (2.5% cyclodextran) was administered intraperitoneally once each day for 25 days (2-methylphenazine-5,10-dioxide) or 40 days (Tetracycline). On the day following the last dose administration, the rear molars of the mice were swabbed and the swabs incubated in a growth medium to assess the presence of P. gingivalis. Mice were then sacrificed and jaw bones harvested for evaluation of bone loss.
structure (smiles),measurement,setting,value
"Nc1ccc2c(c1)[n+]([O-])c1ccccc1[n+]2[O-] [2-aminophenazine-5,10-dioxide]",% Inhibition of collagenase,[1]; 1 μg/ml,11.6%
same,% Inhibition of collagenase,[1]; 10 μg/ml,47.3%
same,% Inhibition of collagenase,[1]; 50 μg/ml,57.3%
same,% Inhibition of collagenase,[1]; 100 μg/ml,81.7%
same,anti-collagenase IC50,[1]; estimated from Table 5,more than 10 μg/ml
"Cc1ccc2c(c1)[n+]([O-])c1ccccc1[n+]2[O-] [2-methylphenazine-5,10-dioxide]",Deaths,"[2]; Mice, 5 mg/kg IV, 25% Cremaphor, 1 administration",0
same,Deaths,"[2]; Mice, 5 mg/kg IV, 30% Encapsin CD, 1 administration",0
same,Deaths,"[2]; Mice, 5 mg/kg IV, 100% DMSO, 1 administration",0
same,Deaths,"[2]; Mice, 30 mg/kg IV, 10% Cremaphor, 1 administration",0
same,Deaths,"[2]; Mice, 40 mg/kg IV, 25% Cremaphor, 1 administration",0
same,Deaths,"[2]; Mice, 50 mg/kg IV, 30% Encapsin CD, 1 administration",0
same,Deaths,"[2]; Mice, 800 mg/kg PO, 100% Cremaphor, 1 administration",0
same,Deaths,"[2]; Mice, 1000 mg/kg PO, 100% Cremaphor, 1 administration",1/2
same,Deaths,"[2]; Rats, 5 mg/kg IV, 20% Cremaphor, 1 administration",0
same,Deaths,"[2]; Rats, 10 mg/kg IV, 25% Encapsin CD/10% DMSO, 1 administration",0
same,Deaths,"[2]; Rats, 20 mg/kg IV, 30% Encapsin CD, 1 administration",0
same,Deaths,"[2]; Rats, 50 mg/kg PO, 2% Brij 35/Water, 1 administration",0
same,Deaths,"[2]; Rats, 50 mg/kg PO, 10% Brij 35/Mineral Oil, 1 administration",0
same,Deaths,"[2]; Rats, 50 mg/kg PO, 10% Brij 35/Water, 1 administration",0
same,Deaths,"[2]; Rats, 50 mg/kg PO, Water, 1 administration",0
same,Deaths,"[2]; Rats, 80 mg/kg PO, 10% Cremaphor, 1 administration",0
same,Deaths,"[2]; Rats, 100 mg/kg PO, 2% Brij 35, 1 administration",0
same,Deaths,"[2]; Rats, 100 mg/kg PO, 10% Arlacel 83/Corn Oil, 1 administration",0
same,Deaths,"[2]; Rats, 100 mg/kg PO, 100% PEG400, 1 administration",0
same,Deaths,"[2]; Rats, 100 mg/kg PO, 110% Encapsin CD, 1 administration",0
same,Deaths,"[2]; Rats, 200 mg/kg PO, 100% Cremaphor, 1 administration",0
same,Other Signs of Toxicity,"[2]; mouse, iv, 5 mg/kg",NONE
same,Other Signs of Toxicity,"[2]; mouse, iv, 30 mg/kg",NONE
same,Other Signs of Toxicity,"[2]; mouse, iv, 40 mg/kg",NONE
same,Other Signs of Toxicity,"[2]; mouse, iv, 50 mg/kg",Abnormal Clin Obs
same,Other Signs of Toxicity,"[2]; mouse, po, 800 mg/kg",NONE
same,Other Signs of Toxicity,"[2]; mouse, po, 1000 mg/kg",NONE
same,Other Signs of Toxicity,"[2]; rat, iv, 10 mg/kg",NONE
same,Other Signs of Toxicity,"[2]; rat, iv, 20 mg/kg",NONE
same,Other Signs of Toxicity,"[2]; rat, po, 50 mg/kg",NONE
same,Other Signs of Toxicity,"[2]; rat, po, 80 mg/kg",NONE
same,Other Signs of Toxicity,"[2]; rat, po, 100 mg/kg",NONE
same,Other Signs of Toxicity,"[2]; rat, po, 200 mg/kg",NONE
same,effect of treatment on bone loss,P. gingivalis,reduced the observed bone loss

# Source: patent publication US5637591A, “Antimicrobial and anticollagenase activity of phenazine-5, 10-dioxide and derivatives” (Fuji ImmunoPharmaceuticals Corp., priority 1995, dated 1997)
